Assay results as given in patent US9216106B2, “Device and method for the delivery of drugs for the treatment of posterior segment disease” (DIRECTCONTACT LLC, priority 2003, dated 2015).

Assays:
[1] = Release of drug from hydrogel lens in contact with the cornea; assay type: in vivo; conditions: after 2 hours of contact with the cornea; lens with about 700 ng beclomethasone or 450 ng prednisolone
Protocol: In some embodiments, such as with classes of corticosteroids, a single hydrogel contact lens may be loaded with about […] of active compound. For instance, experiments have shown that an effective concentration of beclomethasone can be delivered to the posterior segment by treating with a lens that includes about 700 ng of the compound. […] In each case, about 95% of the drug exited the lens after 2 hours of contact with the cornea. It is believed that the consistent pore size of the hydrogels provides for a consistent delivery rate of a variety of compounds.

[2] = rabbit, in vivo
Protocol: A series of experiments were designed to determine the efficacy of delivery to the posterior segment from a hydrogel positioned on the cornea.
In the first experiment, rabbits were treated by placing hydrogel lenses on the corneas of the animals for a period of 3 hours. Each lens was infused with about 450 ng of prednisolone incorporated therein. The lenses were placed onto the eyes of anesthetized animals (closed eye period) for the three hour period after which time the lenses were removed. The procedure was repeated about every other day or every three days until 5 applications had been completed.
After completion of the five applications, each eye of the animal was analyzed for prednisolone concentration using LC/MS/MS. The portion of the posterior segment that was analyzed included macula, retina, surrounding muscle, nerve and circulatory, including connective tissues and cells. Sample size typically was about 800 mg. […] The limit of quantification for prednisolone was 0.5 ng/mL and for prednisone was 0.05 ng/mL.

SMILES | drug exited the lens [1] | average concentration in the posterior segment relative to the amount provided in the hydrogel lenses [2]
C[C@]12C=CC(=O)C=C1CC[C@@H]1[C@@H]2[C@@H](O)C[C@@]2(C)[C@H]1CC[C@]2(O)C(=O)CO [Prednisolone, prednisolone] | about 95% | greater than 10%
C[C@H]1C[C@H]2[C@@H]3CCC4=CC(=O)C=C[C@]4(C)[C@@]3(Cl)[C@@H](O)C[C@]2(C)[C@@]1(O)C(=O)CO [Beclomethasone, beclomethasone] | about 95% | 
